As a reminder, the IC50 is the midpoint of a concentration-inhibition curve. What is called half-life is how long it takes for the measured level to halve. Usually fraction unbound stands for the share of the substance not bound to proteins or other matrix. A word on the ED50: it is the dose at which the effect has come halfway, by size or by number of responders. The term Ki denotes the dissociation constant of the complex between target and ligand, obtained from inhibition or displacement.

From ChEMBL document CHEMBL5579833, “The U.S. FDA approved cardiovascular drugs from 2011 to 2023: A medicinal chemistry perspective” (Eur J Med Chem, 2024) come the findings set out here.

Where a name gives a salt, the structure may show the parent alone.

A short description of series [1]: Activation of Myosin S1 ATPase activity in bovine Cardio-myofibril.
A short description of series [2]: Elimination half life in cynomologus monkey. The settings on record: cynomolgus monkey, in vivo.
Series [3] in a line: Plasma protein binding in cynomolgus monkey.
Series [4] deals with T1, Type-2 angiotensin II receptor (Homo sapiens, UniProt P50052).
T1 sequence (P50052 whole entry): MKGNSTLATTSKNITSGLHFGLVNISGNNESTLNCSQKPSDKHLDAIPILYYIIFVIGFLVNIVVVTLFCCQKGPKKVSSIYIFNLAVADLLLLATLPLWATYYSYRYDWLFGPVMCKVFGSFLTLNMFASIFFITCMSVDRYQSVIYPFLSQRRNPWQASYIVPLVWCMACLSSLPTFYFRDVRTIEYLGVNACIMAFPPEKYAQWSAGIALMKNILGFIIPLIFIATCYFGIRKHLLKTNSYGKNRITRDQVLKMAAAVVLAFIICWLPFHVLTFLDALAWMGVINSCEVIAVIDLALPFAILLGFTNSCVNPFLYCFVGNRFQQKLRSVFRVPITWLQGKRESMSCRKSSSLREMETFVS
Kind of series: Inhibition of Angiotensin-2 receptor (unknown origin).

Series [5] is described as follows: Inhibition of ApoB lipoprotein secretion in human HepG2 cells. Format: functional. To be noted: read-out: ED50 (the source's name).
The next series is filed under the species Rattus norvegicus. Briefly: Antithrombotic activity in fibrin-rich platelet-poor rat thrombin.
In a further series the target is P2Y purinoceptor 12 (Homo sapiens, UniProt Q9H244). Kind of series: Binding affinity to human P2Y12 assessed as inhibition constant.
P2Y purinoceptor 12, sequence (Q9H244 whole entry): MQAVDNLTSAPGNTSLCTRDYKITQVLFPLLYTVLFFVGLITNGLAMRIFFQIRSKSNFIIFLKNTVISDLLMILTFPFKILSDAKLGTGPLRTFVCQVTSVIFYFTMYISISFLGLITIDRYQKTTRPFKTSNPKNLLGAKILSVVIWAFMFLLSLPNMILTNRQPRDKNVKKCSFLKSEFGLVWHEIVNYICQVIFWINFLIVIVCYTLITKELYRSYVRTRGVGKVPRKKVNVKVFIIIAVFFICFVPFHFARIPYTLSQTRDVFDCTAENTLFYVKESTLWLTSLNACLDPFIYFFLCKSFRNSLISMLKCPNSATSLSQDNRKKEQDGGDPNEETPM
For the next series, the system named is Platelet. Briefly: Inhibition of thrombin-induced human platelet aggregation.

On to `CC(C)n1c(=O)cc(N[C@@H](C)c2ccccc2)[nH]c1=O`, for which, in series [1], half-maximal inhibition (IC50) required 300 nM.
In series [2], `CCCCC(=O)N(Cc1ccc(-c2ccccc2-c2nnn[nH]2)cc1)[C@H](C(=O)O)C(C)C.CCOC(=O)[C@H](C)C[C@@H](Cc1ccc(-c2ccccc2)cc1)NC(=O)CCC(=O)O` gave a half-life of 4.6 h. This molecule also showed a fraction unbound in series [3] of 0.06.
In series [4], `CCOc1nc2cccc(C(=O)OCc3oc(=O)oc3C)c2n1Cc1ccc(-c2ccccc2-c2noc(=O)[nH]2)cc1` [AZILSARTAN MEDOXOMIL] registered an IC50 of 2.6 nM.
Consider `O=C(NC1CCN(CCCCC2(C(=O)NCC(F)(F)F)c3ccccc3-c3ccccc32)CC1)c1ccccc1-c1ccc(C(F)(F)F)cc1` [LOMITAPIDE MESYLATE], for which the EC50 in series [5] turned out to be 0.8 nM.
`O=C(NC[C@H]1CN(c2ccc(N3CCOCC3=O)cc2)C(=O)O1)c1ccc(Cl)s1` [RIVAROXABAN] came in with an ED50 in the series listed under Rattus norvegicus of 0.1 mg/kg.
On to `CCCSc1nc(N[C@@H]2C[C@H]2c2ccc(F)c(F)c2)c2nnn([C@@H]3C[C@H](OCCO)[C@@H](O)[C@H]3O)c2n1` [TICAGRELOR], for which the inhibition constant Ki at P2Y purinoceptor 12 worked out at 4.3 nM.
For `CCOC(=O)N[C@@H]1CC[C@@H]2[C@@H](C1)C[C@H]1C(=O)O[C@H](C)[C@H]1[C@H]2/C=C/c1ccc(-c2cccc(F)c2)cn1` [VORAPAXAR], in the series with Platelet, the IC50 amounted to 47 nM.
